Measured values published in paper PMC12154575, “Azvudine Suppresses Epithelial–Mesenchymal Transition in Hepatocellular Carcinoma by Targeting the Notch–HEY Signalling Pathway” (International Journal of Molecular Sciences, 2025).

Target: T1, Jagged1 (Homo sapiens, UniProt P78504)
T1 construct: gene JAG1; full-length extracellular domain (C2 to EGF16, 1277-JG-050, R&D Systems) tagged with an Fc-tag (Jagged1-Fc)
Test: label-free microscale thermophoresis (MST)
Format: binding

T1 sequence (P78504 34-1067 limits assumed): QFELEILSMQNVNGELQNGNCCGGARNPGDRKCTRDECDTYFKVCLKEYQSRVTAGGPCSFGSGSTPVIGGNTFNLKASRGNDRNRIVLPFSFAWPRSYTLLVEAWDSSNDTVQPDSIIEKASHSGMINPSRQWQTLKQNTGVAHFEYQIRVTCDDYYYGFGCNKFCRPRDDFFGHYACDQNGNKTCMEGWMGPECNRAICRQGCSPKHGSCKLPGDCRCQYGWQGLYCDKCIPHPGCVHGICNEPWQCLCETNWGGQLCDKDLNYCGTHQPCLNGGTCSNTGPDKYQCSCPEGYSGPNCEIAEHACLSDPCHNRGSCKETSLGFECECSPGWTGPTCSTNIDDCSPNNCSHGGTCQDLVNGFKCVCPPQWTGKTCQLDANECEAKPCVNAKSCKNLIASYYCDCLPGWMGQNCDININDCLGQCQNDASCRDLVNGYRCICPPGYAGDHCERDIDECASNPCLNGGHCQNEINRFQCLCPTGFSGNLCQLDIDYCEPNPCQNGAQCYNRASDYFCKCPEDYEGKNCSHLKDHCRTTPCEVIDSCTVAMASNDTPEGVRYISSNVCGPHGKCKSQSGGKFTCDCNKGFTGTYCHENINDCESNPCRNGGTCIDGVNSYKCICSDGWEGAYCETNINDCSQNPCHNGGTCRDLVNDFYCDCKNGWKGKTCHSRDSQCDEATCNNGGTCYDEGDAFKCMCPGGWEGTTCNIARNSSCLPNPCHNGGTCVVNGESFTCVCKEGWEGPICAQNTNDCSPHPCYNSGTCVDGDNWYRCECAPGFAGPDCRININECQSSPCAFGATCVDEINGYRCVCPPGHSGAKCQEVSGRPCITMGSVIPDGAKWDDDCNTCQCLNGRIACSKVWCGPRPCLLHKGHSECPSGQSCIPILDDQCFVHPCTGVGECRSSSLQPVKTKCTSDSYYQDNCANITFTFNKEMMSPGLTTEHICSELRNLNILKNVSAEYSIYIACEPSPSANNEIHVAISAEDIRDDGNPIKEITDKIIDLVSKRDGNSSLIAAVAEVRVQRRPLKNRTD

Compound: [N-]=[N+]=N[C@]1(CO)O[C@@H](n2ccc(N)nc2=O)[C@@H](F)[C@@H]1O [FNC, 2′-deoxy-2′-β-fluoro-4′-azidocytidine]
- Kd: 28.4 ± 6.6 µM
